Reference: patent US9751878B2, “Tetrahydronaphthyridine somatostatin receptor 5 antagonists” (Takeda Pharmaceutical Company Limited, priority 2013, dated 2017)

Target: T1, human SSTR5 (Homo sapiens, UniProt P35346)
T1 construct: expressed in transfected cells
Assay: Evaluation of human SSTR5 antagonist activity using intracellular cAMP concentration as index
Type: cell-based
Settings: 1 μM test compound; CHO (dhfr-) cells stably expressing human SSTR5; 0.1 nM somatostatin 28, 0.3 μM forskolin; cAMP HTRF; read-out: Inhibition rate against SSTR5 at 1 μM
Experimental: Evaluation of Human SSTR5 Antagonist Activity Using Intracellular cAMP Concentration as Index
The intracellular cAMP concentration was measured using HTRF cAMP dynamic 2 kit (Cisbio Bioassays). Each test compound diluted with an assay buffer (HBSS (Invitrogen Corp.) containing 5 mM HEPES (pH 7.5) (Invitrogen Corp.), 0.1% fatty-acid free BSA (Sigma-Aldrich Corp.), and 500 μM IBMX (Wako Pure Chemical Industries, Ltd.)) was added at a concentration of 2 μL/well to a 384-well white plate (Greiner Bio-One Co., Ltd.) to give the final concentration of 1 μM. A frozen stock of CHO (dhfr-) cells stably expressing the human SSTR5 gene (Accession No. NM_001053) was thawed in a thermostat bath of 37° C. and suspended in a subculture medium (MEM alpha (Wako Pure Chemical Industries, Ltd.), 10% dialyzed serum (Gemini Bio-Products), and 50 μg/mL gentamicin (Invitrogen Corp.). After centrifugation of the cell suspension, the cells were resuspended in an assay buffer and added at a concentration of 2 μL/well (about 4,000 cells/well) to the plate. The compound and the cells were incubated for 15 minutes, and then, an assay buffer containing 0.1 nM (final concentration) somatostatin 28 (Toray Research Center) and 0.3 μM (final concentration) forskolin (Wako Pure Chemical Industries, Ltd.) was added thereto at a concentration of 2 μL/well, followed by incubation at room temperature for 30 minutes. cAMP-d2 and anti-cAMP-cryptate were each added thereto at a concentration of 3 μL/well. The plate was left standing at room temperature for 60 minutes. Then, the fluorescence resonance energy transfer (FRET) intensity was measured using Multi-label reader Envision (PerkinElmer). The FRET intensity of the wells supplemented with the test compound group was converted to a cAMP concentration using a calibration curve prepared from the FRET intensity of a well group containing an assay buffer supplemented with an arbitrary concentration of cAMP. The inhibitory activity of each compound was calculated according to the following expression: Inhibitory activity (%)=(C−B)/(A−B)×100 A: cAMP concentration calculated from the wells supplemented with 0.3 μM forskolin B: cAMP concentration calculated from the wells supplemented with 0.3 μM forskolin and 0.1 nM somatostatin 28 C: cAMP concentration calculated from the wells supplemented with 0.3 μM forskolin, 0.1 nM somatostatin 28, and 1 μM test compound

T1 sequence (P35346 whole entry): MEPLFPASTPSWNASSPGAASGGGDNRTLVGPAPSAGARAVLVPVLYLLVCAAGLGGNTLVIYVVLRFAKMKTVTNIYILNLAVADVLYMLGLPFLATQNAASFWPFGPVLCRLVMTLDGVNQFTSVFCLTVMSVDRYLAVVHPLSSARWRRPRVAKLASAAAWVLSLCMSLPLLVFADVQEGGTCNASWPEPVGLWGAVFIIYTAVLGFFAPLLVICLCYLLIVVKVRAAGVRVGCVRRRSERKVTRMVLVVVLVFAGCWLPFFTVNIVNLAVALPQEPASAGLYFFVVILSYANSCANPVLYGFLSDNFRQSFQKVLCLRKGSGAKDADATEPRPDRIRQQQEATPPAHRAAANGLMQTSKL

`CCOc1cc(CN2CCC(N3CCc4nc(C)c(C(=O)O)cc4C3=O)CC2)cc(C2CC2)c1-c1ccc(F)cc1` [Example 1, 6-(1-((2-Cyclopropyl-6-ethoxy-4′-fluorobiphenyl-4-yl)methyl)piperidin-4-yl)-2-methyl-5-oxo-5,6,7,8-tetrahydro-1,6-naphthyridine-3-carboxylic acid] was tested, and the inhibition at 1 µM was 91%.

With `CCOc1cc(-c2ccc(F)cc2)c(C2CC2)cc1CN1CCC(N2CCc3nc(CC)c(C(=O)O)cc3C2=O)CC1` [Example 2, 6-(1-((2-Cyclopropyl-5-ethoxy-4′-fluorobiphenyl-4-yl)methyl)piperidin-4-yl)-2-ethyl-5-oxo-5,6,7,8-tetrahydro-1,6-naphthyridine-3-carboxylic acid] the inhibition at 1 µM was 86%.

`CCOc1cc(-c2ccc(F)cc2)c(C2CC2)cc1CN1CCC(N2CCc3nc(C4CC4)c(C(=O)O)cc3C2=O)CC1` [Example 3, 2-Cyclopropyl-6-(1-((2-cyclopropyl-5-ethoxy-4′-fluorobiphenyl-4-yl)methyl)piperidin-4-yl)-5-oxo-5,6,7,8-tetrahydro-1,6-naphthyridine-3-carboxylic acid] was tested, and the inhibition at 1 µM was 115%.

`CCOc1cc(-c2ccc(F)cc2)c(C2CC2)cc1CN1CCC(N2CCc3nc(C)c(C(=O)O)cc3C2=O)CC1` [Example 5, 6-(1-((2-Cyclopropyl-5-ethoxy-4′-fluorobiphenyl-4-yl)methyl)piperidin-4-yl)-2-methyl-5-oxo-5,6,7,8-tetrahydro-1,6-naphthyridine-3-carboxylic acid] was tested, and the inhibition at 1 µM was 132%.

In the case of `Cc1nc2c(cc1C(=O)O)C(=O)N(C1CCN(Cc3cc(C4CC4)c(-c4ccc(F)cc4)nc3OC(C)C)CC1)CC2` [Example 6, 6-(1-((5-Cyclopropyl-6-(4-fluorophenyl)-2-isopropoxypyridin-3-yl)methyl)piperidin-4-yl)-2-methyl-5-oxo-5,6,7,8-tetrahydro-1,6-naphthyridine-3-carboxylic acid], the inhibition at 1 µM is reported as 88%.

Molecule `Cc1nc2c(cc1C(=O)O)C(=O)N(C1CCN(Cc3cc(C4CC4)c(-c4ccc(F)cc4)cc3OC(C)C)CC1)CC2` [Example 7, 6-(1-((2-Cyclopropyl-4′-fluoro-5-isopropoxybiphenyl-4-yl)methyl)piperidin-4-yl)-2-methyl-5-oxo-5,6,7,8-tetrahydro-1,6-naphthyridine-3-carboxylic acid] has an inhibition at 1 µM of 88%.

With `CCOc1cc(CN2CCC(N3CCc4nc(C)c(C(=O)O)cc4C3=O)CC2)cc(C2CC2)c1-c1ccc(F)c(F)c1` [Example 8, 6-(1-((2-Cyclopropyl-6-ethoxy-3′,4′-difluorobiphenyl-4-yl)methyl)piperidin-4-yl)-2-methyl-5-oxo-5,6,7,8-tetrahydro-1,6-naphthyridine-3-carboxylic acid] the inhibition at 1 µM was 97%.

With `CCOc1cc(C2CCC2)c(C2CC2)cc1CN1CCC(N2CCc3ncc(C(=O)O)cc3C2=O)CC1` [Example 30, 6-(1-(4-Cyclobutyl-5-cyclopropyl-2-ethoxybenzyl)piperidin-4-yl)-5-oxo-5,6,7,8-tetrahydro-1,6-naphthyridine-3-carboxylic acid] the inhibition at 1 µM was 110%.

`CCOc1cc(-c2ccc(F)cc2)c(C2CC2)cc1CN1CCC(N2CCc3ccc(C(=O)O)nc3C2=O)CC1` [Example 31, 7-(1-((2-Cyclopropyl-5-ethoxy-4′-fluorobiphenyl-4-yl)methyl)piperidin-4-yl)-8-oxo-5,6,7,8-tetrahydro-1,7-naphthyridine-2-carboxylic acid] was tested, and the inhibition at 1 µM was 118%.

`CCOc1nc(-c2ccc(F)cc2)c(C2CC2)cc1CN1CCC(N2CCc3nc(CC)c(C(=O)O)cc3C2=O)CC1` [Example 33, 6-(1-((5-Cyclopropyl-2-ethoxy-6-(4-fluorophenyl)pyridin-3-yl)methyl)piperidin-4-yl)-2-ethyl-5-oxo-5,6,7,8-tetrahydro-1,6-naphthyridine-3-carboxylic acid] showed an inhibition at 1 µM of 123%.

In the case of `CCOc1cc(CN2CCC(N3CCc4ncc(C(=O)O)cc4C3=O)C2)cc(OCC)c1-c1ccc(F)cc1` (stereo not shown) [Example 34, 6-(1-((2,6-Diethoxy-4′-fluorobiphenyl-4-yl)methyl)pyrrolidin-3-yl)-5-oxo-5,6,7,8-tetrahydro-1,6-naphthyridine-3-carboxylic acid], the inhibition at 1 µM is reported as 102%.

Molecule `CCCc1nc2c(cc1C(=O)O)C(=O)N(C1CCN(Cc3cc(OCC)c(-c4ccc(F)cc4)c(C4CC4)c3)CC1)CC2` [Example 36, 6-(1-((2-Cyclopropyl-6-ethoxy-4′-fluorobiphenyl-4-yl)methyl)piperidin-4-yl)-5-oxo-2-propyl-5,6,7,8-tetrahydro-1,6-naphthyridine-3-carboxylic acid] has an inhibition at 1 µM of 94%.

Work on `CCCc1nc2c(cc1C(=O)O)C(=O)N(C1CCN(Cc3cc(C4CC4)c(-c4ccc(F)cc4)cc3OC(C)C)CC1)CC2` [Example 37, 6-(1-((2-Cyclopropyl-4′-fluoro-5-isopropoxybiphenyl-4-yl)methyl)piperidin-4-yl)-5-oxo-2-propyl-5,6,7,8-tetrahydro-1,6-naphthyridine-3-carboxylic acid] yielded an inhibition at 1 µM of 97%.

`CCCc1nc2c(cc1C(=O)O)C(=O)N(C1CCN(Cc3cc(OCC)c(-c4ccc(F)cc4)c(OCC)c3)CC1)CC2` [Example 38, 6-(1-((2,6-Diethoxy-4′-fluorobiphenyl-4-yl)methyl)piperidin-4-yl)-5-oxo-2-propyl-5,6,7,8-tetrahydro-1,6-naphthyridine-3-carboxylic acid] gave an inhibition at 1 µM of 97%.

`CCCc1nc2c(cc1C(=O)O)C(=O)N(C1CCN(Cc3cc(C4CC4)c(-c4ccc(F)c(F)c4)cc3OC(C)C)CC1)CC2` [Example 39, 6-(1-((2-Cyclopropyl-3′,4′-difluoro-5-isopropoxybiphenyl-4-yl)methyl)piperidin-4-yl)-5-oxo-2-propyl-5,6,7,8-tetrahydro-1,6-naphthyridine-3-carboxylic acid] was tested, and the inhibition at 1 µM was 112%.

Work on `CCCc1nc2c(cc1C(=O)O)C(=O)N(C1CCN(Cc3cc(C4CC4)c(-c4ccc(F)cc4F)cc3OC(C)C)CC1)CC2` [Example 40, 6-(1-((2-Cyclopropyl-2′,4′-difluoro-5-isopropoxybiphenyl-4-yl)methyl)piperidin-4-yl)-5-oxo-2-propyl-5,6,7,8-tetrahydro-1,6-naphthyridine-3-carboxylic acid] yielded an inhibition at 1 µM of 148%.

`CCCc1nc2c(cc1C(=O)O)C(=O)N(C1CCN(Cc3cc(C4CC4)c(C4CCC4)cc3OC(C)C)CC1)CC2` [Example 41, 6-(1-(4-Cyclobutyl-5-cyclopropyl-2-isopropoxybenzyl)piperidin-4-yl)-5-oxo-2-propyl-5,6,7,8-tetrahydro-1,6-naphthyridine-3-carboxylic acid] gave an inhibition at 1 µM of 99%.

`CCCc1nc2c(cc1C(=O)O)C(=O)N(C1CCN(Cc3cc(C4CC4)c(-c4ccc(F)cc4)cc3OC)CC1)CC2` [Example 42, 6-(1-((2-Cyclopropyl-4′-fluoro-5-methoxybiphenyl-4-yl)methyl)piperidin-4-yl)-5-oxo-2-propyl-5,6,7,8-tetrahydro-1,6-naphthyridine-3-carboxylic acid] showed an inhibition at 1 µM of 136%.

Work on `CCCc1nc2c(cc1C(=O)O)C(=O)N(C1CCN(Cc3cc(C4CC4)c(-c4ccc(F)c(F)c4)cc3OCC)CC1)CC2` [Example 43, 6-(1-((2-Cyclopropyl-5-ethoxy-3′,4′-difluorobiphenyl-4-yl)methyl)piperidin-4-yl)-5-oxo-2-propyl-5,6,7,8-tetrahydro-1,6-naphthyridine-3-carboxylic acid] yielded an inhibition at 1 µM of 95%.

In the case of `CCc1nc2c(cc1C(=O)O)C(=O)N(C1CCN(Cc3cc(C4CC4)c(-c4ccc(F)cc4)cc3OC(C)C)CC1)CC2` [Example 44, 6-(1-((2-Cyclopropyl-4′-fluoro-5-isopropoxybiphenyl-4-yl)methyl)piperidin-4-yl)-2-ethyl-5-oxo-5,6,7,8-tetrahydro-1,6-naphthyridine-3-carboxylic acid], the inhibition at 1 µM is reported as 111%.

`CCOc1cc(CN2CCC(N3CCc4nc(CC)c(C(=O)O)cc4C3=O)CC2)cc(C2CC2)c1-c1ccc(F)cc1` [Example 45, 6-(1-((2-Cyclopropyl-6-ethoxy-4′-fluorobiphenyl-4-yl)methyl)piperidin-4-yl)-2-ethyl-5-oxo-5,6,7,8-tetrahydro-1,6-naphthyridine-3-carboxylic acid] showed an inhibition at 1 µM of 99%.

With `CCc1nc2c(cc1C(=O)O)C(=O)N(C1CCN(Cc3cc(C4CC4)c(-c4ccc(F)cc4F)cc3OC(C)C)CC1)CC2` [Example 46, 6-(1-((2-Cyclopropyl-2′,4′-difluoro-5-isopropoxybiphenyl-4-yl)methyl)piperidin-4-yl)-2-ethyl-5-oxo-5,6,7,8-tetrahydro-1,6-naphthyridine-3-carboxylic acid] the inhibition at 1 µM was 86%.
